Data set [1] relates to A549. The data set is described as follows: Antiinvasive activity against human A549 cells assessed as inhibition of cell invasion at 50 uM after 24 hrs by crystal violet staining based transwell assay relative to control. Type of data set: functional. As to conditions: A549, 24 h.
For data set [2], the system named is A549. The data set is described as follows: Effect on ERK phosphorylation in human A549 cells up to 50 uM after 24 hrs by Western blot analysis. Format: cell-based. (In western blotting, separated proteins are transferred to a membrane and probed.)
Data set [3] concerns the target Matrix metalloproteinase-9 (Homo sapiens) (UniProt P14780). The data set can be described thus: Effect on MMP9 phosphorylation in human A549 cells up to 50 uM after 24 hrs by Western blot analysis. Format: cell-based.
Data set [4] deals with A549. The data set can be described thus: Effect on FAK expression in human A549 cells up to 50 uM after 24 hrs by Western blot analysis. Format: functional, cell-based.
Data set [5] concerns the target Focal adhesion kinase 1 (Homo sapiens) (UniProt Q05397). The data set is described as follows: Effect on FAK phosphorylation in human A549 cells up to 50 uM after 24 hrs by Western blot analysis. Format: cell-based.
Data set [6] concerns A549. The data set is described as follows: Cytotoxicity against human A549 cells assessed as effect on cell viability up to 100 uM after 24 hrs by EZ-Cytox cell viability assay. As to conditions: a549, 24 h. Type of data set: cell-based.
In data set [7] the target is 72 kDa type IV collagenase (Homo sapiens) (UniProt P08253). The data set is described as follows: Effect on MMP2 phosphorylation in human A549 cells up to 50 uM after 24 hrs by Western blot analysis. Type of data set: cell-based.
Sequence of 72 kDa type IV collagenase (Homo sapiens) (P08253 110-660 limits assumed): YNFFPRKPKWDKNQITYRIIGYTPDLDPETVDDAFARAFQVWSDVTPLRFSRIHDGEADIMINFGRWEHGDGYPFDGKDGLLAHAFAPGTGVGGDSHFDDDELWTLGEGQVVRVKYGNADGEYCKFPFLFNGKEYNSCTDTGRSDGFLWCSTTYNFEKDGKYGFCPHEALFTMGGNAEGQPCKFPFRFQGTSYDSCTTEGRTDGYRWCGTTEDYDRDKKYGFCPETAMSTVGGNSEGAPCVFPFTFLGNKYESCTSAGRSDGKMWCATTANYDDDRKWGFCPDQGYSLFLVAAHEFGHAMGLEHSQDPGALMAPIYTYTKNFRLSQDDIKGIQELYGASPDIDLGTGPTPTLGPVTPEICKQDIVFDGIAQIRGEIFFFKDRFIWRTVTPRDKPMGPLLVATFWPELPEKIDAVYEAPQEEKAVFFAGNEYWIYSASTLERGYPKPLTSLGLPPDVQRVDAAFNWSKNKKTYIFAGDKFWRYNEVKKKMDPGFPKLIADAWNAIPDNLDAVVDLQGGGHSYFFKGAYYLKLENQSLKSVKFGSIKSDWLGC
The subject of data set [8] is A549. The data set is described as follows: Effect on MMP2 expression in human A549 cells up to 50 uM after 24 hrs by Western blot analysis. Format: functional, cell-based.
For data set [9], the system named is A549. The data set can be described thus: Effect on ERK expression in human A549 cells up to 50 uM after 24 hrs by Western blot analysis. Format: functional, cell-based.
The subject of data set [10] is A549. The data set is described as follows: Effect on paxillin expression in human A549 cells up to 50 uM after 24 hrs by Western blot analysis. Format: functional, cell-based.
Data set [11] deals with A549. The data set can be described thus: Effect on p38 expression in human A549 cells up to 50 uM after 24 hrs by Western blot analysis. Type of data set: functional, cell-based.
In data set [12] the test system is A549. The data set can be described thus: Antimigratory activity against human A549 cells assessed as reduction in cell motility measured at 15 mins interval for 12 hrs by Holomonitor M4 time-lapse cytometric method. Format: functional, cell-based.
Data set [13] relates to A549. The data set can be described thus: Effect on MMP9 expression in human A549 cells up to 50 uM after 24 hrs by Western blot analysis. Format: functional, cell-based.
The test system of data set [14] is A549. The data set can be described thus: Antimigratory activity against human A549 cells assessed as reduction in cell migration measured at 15 mins interval for 12 hrs by Holomonitor M4 time-lapse cytometric method. Format: functional, cell-based.
The target of data set [15] is MAP kinase p38 (Homo sapiens) (UniProt O15264+Q15759+Q16539+P53778). The data set is described as follows: Effect on p38 phosphorylation in human A549 cells up to 50 uM after 24 hrs by Western blot analysis. Type of data set: cell-based.
The target in data set [16] is Paxillin (Homo sapiens) (UniProt P49023). The data set can be described thus: Effect on paxillin phosphorylation in human A549 cells up to 50 uM after 24 hrs by Western blot analysis. Format: cell-based.
Sequence of Paxillin (Homo sapiens) (P49023 whole entry): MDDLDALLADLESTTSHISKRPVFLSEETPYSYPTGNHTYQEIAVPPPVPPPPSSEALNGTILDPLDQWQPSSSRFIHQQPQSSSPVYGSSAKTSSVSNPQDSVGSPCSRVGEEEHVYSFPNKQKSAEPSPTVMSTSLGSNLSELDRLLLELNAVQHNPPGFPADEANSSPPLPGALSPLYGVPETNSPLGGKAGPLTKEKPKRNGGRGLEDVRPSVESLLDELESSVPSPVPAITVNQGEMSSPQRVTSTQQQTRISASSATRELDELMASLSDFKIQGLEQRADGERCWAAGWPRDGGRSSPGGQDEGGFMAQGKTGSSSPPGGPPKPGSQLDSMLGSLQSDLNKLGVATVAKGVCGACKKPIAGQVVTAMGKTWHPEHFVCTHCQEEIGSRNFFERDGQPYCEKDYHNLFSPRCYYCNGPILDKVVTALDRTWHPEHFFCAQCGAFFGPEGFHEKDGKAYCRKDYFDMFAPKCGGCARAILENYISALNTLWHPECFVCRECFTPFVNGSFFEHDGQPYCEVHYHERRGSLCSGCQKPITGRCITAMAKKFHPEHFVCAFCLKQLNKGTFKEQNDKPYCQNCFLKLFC
For data set [17], the system named is A549. The data set is described as follows: Effect on JNK expression in human A549 cells up to 50 uM after 24 hrs by Western blot analysis. Format: functional, cell-based.
Data set [18] has as its target c-Jun N-terminal kinase, JNK (Homo sapiens) (UniProt P45983+P53779+P45984). The data set can be described thus: Effect on JNK phosphorylation in human A549 cells up to 50 uM after 24 hrs by Western blot analysis. Format: cell-based.

Each structure is given as a SMILES string. Active and inactive are the calls of the source. The rule behind the calls is not given here. Where a SMILES comes first, the peptide text is derived from it. Bridges are numbered along the chain shown (N, C = ends).

Sequence of Matrix metalloproteinase-9 (Homo sapiens) (P14780 whole entry): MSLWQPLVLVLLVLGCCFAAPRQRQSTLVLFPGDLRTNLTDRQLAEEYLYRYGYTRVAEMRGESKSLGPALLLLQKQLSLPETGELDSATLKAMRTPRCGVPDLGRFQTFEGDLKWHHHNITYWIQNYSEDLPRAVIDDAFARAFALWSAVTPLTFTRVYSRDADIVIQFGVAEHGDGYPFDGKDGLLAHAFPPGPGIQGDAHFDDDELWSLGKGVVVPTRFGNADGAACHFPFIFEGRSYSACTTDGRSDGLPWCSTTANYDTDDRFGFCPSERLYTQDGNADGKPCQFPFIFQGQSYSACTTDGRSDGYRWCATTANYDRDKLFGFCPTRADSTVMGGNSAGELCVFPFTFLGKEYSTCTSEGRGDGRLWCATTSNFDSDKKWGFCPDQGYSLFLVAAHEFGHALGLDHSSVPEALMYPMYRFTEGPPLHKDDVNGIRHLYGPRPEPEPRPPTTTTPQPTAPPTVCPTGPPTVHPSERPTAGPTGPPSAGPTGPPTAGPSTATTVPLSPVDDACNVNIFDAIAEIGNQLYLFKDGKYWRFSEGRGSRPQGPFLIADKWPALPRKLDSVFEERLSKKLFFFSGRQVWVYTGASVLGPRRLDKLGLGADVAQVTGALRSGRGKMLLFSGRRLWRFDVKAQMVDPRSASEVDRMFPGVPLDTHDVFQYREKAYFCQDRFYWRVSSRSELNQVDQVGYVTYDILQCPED
Sequence of Focal adhesion kinase 1 (Homo sapiens) (Q05397 2-1052 limits assumed): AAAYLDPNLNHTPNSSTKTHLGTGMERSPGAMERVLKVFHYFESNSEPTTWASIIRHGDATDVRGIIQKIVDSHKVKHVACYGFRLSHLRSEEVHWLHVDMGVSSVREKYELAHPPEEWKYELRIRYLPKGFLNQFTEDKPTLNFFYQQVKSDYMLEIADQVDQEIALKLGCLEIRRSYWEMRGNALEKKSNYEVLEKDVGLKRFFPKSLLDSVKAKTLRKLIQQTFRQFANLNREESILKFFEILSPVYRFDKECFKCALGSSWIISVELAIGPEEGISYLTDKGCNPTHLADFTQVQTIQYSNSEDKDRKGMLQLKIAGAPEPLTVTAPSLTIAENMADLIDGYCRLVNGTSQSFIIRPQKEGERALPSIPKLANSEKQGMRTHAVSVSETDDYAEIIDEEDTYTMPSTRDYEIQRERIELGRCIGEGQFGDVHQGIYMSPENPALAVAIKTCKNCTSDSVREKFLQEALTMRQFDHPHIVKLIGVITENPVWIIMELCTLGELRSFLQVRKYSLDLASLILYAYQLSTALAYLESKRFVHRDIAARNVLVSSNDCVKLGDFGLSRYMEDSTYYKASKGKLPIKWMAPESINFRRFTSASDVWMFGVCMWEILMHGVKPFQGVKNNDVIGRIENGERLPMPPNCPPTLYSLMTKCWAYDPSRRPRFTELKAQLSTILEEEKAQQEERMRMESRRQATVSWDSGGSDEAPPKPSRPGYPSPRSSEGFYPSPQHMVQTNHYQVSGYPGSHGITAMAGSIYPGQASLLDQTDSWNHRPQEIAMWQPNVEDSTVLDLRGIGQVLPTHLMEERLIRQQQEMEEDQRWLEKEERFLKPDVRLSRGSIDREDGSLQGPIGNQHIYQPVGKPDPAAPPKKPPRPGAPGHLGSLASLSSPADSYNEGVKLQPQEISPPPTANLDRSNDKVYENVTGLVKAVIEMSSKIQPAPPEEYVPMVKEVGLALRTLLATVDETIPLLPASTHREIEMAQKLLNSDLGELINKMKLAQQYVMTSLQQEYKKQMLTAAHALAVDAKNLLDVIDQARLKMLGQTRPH

Take `CC(C)C[C@H](NC(=O)CNC(=O)[C@H](Cc1ccccc1)NC(=O)[C@H](CO)NC(=O)[C@@H]1CC(=O)NCC(=O)N[C@@H](Cc2ccccc2)C(=O)NCC(=O)N[C@@H](CO)C(=O)N[C@@H](CCCCN)C(=O)N2CCC[C@H]2C(=O)N[C@@H](CC(C)C)C(=O)N1)C(=O)N[C@@H](CC(N)=O)C(=O)N[C@@H](Cc1ccccc1)C(=O)N[C@@H](Cc1ccccc1)C(=O)O` (GFGSKPLDSFGLNFF-OH; lactam N-8): in data set [1], the inhibition (as a rule, the change of the read-out against control, counted positive when it falls) at 50 µM worked out at 56%.

Regarding `CC[C@H](C)[C@@H]1NC(=O)[C@H](Cc2ccccc2)NC(=O)CNC(=O)C[C@@H](C(=O)N[C@H](C(=O)N[C@@H](Cc2ccccc2)C(=O)NCC(=O)N[C@@H](Cc2cnc[nH]2)C(=O)N[C@@H](Cc2ccc(O)cc2)C(=O)NCC(=O)NCC(=O)O)[C@@H](C)CC)NC(=O)[C@H](CCCCN)NC(=O)CNC(=O)[C@H](Cc2c[nH]c3ccccc23)NC(=O)CNC1=O` (GFIGWGKDIFGHYGG-OH; lactam N-8), the outcome in [2], in [3], in data set [4], in data set [5], in data set [7] and in data set [8] was inactive. Moreover, the outcome in data set [9], in data set [10], in data set [11], in data set [13], in data set [15] and in data set [16] was inactive. Further, the outcome in [17] and in data set [18] was inactive. Further, the Activity result was “Non-Toxic” in data set [6], “Dose-dependent effect” in [12] and “Dose-dependent effect” in data set [14]. In addition, the inhibition at 50 µM in data set [1] is 48.4%.

For `CC[C@H](C)[C@@H]1NC(=O)[C@@H]2CCCN2C(=O)[C@H](CCCCN)NC(=O)[C@H](CO)NC(=O)CNC(=O)[C@H](Cc2ccccc2)NC(=O)CNC(=O)C[C@@H](C(=O)N[C@@H](CO)C(=O)N[C@@H](Cc2ccccc2)C(=O)NCC(=O)N[C@@H](CC(C)C)C(=O)N[C@@H](CO)C(=O)N[C@@H](Cc2c[nH]c3ccccc23)C(=O)N[C@@H](CC(C)C)C(=O)O)NC1=O` [SUNGSANPIN] (GFGSKPIDSFGLSWL-OH; lactam N-8), the inhibition at 50 µM in [1] worked out at 53%.
